# In patent US8637528B2, “Use of PDE7 inhibitors for the treatment of movement disorders” (Omeros Corporation, priority 2007, dated 2014):
# Experiments:
# Dopamine D2L receptor = Dopamine D2L receptor (Homo sapiens (Human), UniProt P14416); experiment: Dopamine D2L radioligand binding assay; conditions: 10.0 μM
# [1] = biological target: Dopamine Transporter (DAT) (Homo sapiens (Human), UniProt Q01959); experiment: Dopamine Transporter (DAT) radioligand binding assay; conditions: 10.0 μM
# PDE7A = PDE7A (Homo sapiens (Human), UniProt Q13946); experiment: initial PDE7A inhibition assay, different assay methodology; assay type: biochemical; conditions: read-out: PDE7A IC50 in the initial assay work
# Sequence of PDE7A (Q13946 whole entry, species assumed): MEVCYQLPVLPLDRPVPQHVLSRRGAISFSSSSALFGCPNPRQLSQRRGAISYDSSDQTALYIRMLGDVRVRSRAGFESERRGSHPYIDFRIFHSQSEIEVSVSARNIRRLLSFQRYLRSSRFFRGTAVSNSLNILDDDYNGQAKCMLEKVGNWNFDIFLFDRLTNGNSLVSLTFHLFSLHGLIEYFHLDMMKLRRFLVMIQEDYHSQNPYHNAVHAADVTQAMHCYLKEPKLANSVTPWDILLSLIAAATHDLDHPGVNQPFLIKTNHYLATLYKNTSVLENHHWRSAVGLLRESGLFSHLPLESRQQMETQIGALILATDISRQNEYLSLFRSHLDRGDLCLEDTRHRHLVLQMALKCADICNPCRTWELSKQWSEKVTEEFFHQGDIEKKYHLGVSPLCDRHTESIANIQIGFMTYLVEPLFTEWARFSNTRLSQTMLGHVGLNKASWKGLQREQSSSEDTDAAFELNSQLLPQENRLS
# Dopamine D5 receptor = Dopamine D5 receptor (Homo sapiens (Human), UniProt P21918); experiment: Dopamine D5 radioligand binding assay; conditions: 10.0 μM
# Sequence of Dopamine D5 receptor (P21918 whole entry): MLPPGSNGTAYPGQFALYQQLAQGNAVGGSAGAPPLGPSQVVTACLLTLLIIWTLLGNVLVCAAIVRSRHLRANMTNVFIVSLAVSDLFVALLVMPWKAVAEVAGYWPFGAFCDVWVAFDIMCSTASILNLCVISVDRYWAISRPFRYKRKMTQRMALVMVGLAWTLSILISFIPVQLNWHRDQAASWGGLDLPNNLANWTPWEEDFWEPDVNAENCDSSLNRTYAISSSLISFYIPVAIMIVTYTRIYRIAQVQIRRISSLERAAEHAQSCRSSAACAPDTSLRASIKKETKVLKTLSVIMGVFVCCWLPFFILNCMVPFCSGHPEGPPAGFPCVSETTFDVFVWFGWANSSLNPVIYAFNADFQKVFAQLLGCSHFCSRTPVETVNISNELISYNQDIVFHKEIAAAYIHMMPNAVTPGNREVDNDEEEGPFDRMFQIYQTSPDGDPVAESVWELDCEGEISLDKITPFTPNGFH
# PDE7B = PDE7B (Homo sapiens (Human), UniProt Q9NP56); experiment: initial PDE7B inhibition assay, different assay methodology; assay type: biochemical; conditions: reliability questioned
# Sequence of PDE7B (Q9NP56 whole entry, species assumed): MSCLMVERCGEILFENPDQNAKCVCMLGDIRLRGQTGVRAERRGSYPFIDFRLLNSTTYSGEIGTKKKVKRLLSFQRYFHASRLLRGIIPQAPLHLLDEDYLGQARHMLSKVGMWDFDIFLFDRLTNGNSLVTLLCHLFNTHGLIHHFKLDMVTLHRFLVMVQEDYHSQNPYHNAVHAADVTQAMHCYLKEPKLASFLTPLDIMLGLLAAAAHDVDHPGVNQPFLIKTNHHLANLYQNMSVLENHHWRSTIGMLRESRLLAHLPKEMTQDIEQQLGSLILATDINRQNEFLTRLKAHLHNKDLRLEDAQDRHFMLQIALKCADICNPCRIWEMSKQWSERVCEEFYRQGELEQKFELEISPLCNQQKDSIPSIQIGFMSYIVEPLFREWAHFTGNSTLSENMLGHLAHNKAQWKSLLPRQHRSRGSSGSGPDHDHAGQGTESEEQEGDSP
# [2] = biological target: Catechol-O-Methyltransferase (COMT) (Sus scrofa, UniProt D3K5L3); experiment: biochemical; assay type: biochemical, pig; conditions: 10.0 μM
# Sequence of Catechol-O-Methyltransferase (COMT) (D3K5L3 1-270): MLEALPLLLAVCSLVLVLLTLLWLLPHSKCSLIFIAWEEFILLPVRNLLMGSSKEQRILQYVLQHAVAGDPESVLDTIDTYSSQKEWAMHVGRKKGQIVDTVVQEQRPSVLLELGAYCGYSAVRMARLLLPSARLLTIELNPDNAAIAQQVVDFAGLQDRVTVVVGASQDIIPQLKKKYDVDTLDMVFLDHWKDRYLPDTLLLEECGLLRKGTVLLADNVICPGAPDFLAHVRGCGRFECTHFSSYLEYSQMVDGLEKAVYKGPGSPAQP
# Adenosine A2A receptor = Adenosine A2A receptor (Homo sapiens (Human), UniProt P29274); experiment: Adenosine A2A receptor radioligand binding assay
# Sequence of Adenosine A2A receptor (P29274 whole entry): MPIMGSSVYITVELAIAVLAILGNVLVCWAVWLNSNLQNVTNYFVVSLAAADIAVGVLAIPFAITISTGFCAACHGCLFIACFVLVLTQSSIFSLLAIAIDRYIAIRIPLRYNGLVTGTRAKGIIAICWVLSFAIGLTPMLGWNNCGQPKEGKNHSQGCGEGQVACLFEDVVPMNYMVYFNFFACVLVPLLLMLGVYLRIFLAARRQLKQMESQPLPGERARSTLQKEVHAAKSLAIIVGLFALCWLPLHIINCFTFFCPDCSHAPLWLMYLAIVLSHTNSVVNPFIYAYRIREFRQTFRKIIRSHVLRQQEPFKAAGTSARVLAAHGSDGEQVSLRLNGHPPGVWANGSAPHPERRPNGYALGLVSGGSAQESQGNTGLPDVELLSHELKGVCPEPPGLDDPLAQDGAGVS
# Protocol: An Adenosine A2A receptor radioligand binding assay was carried out as described in Varani, K., et al., Br. J. Pharmacol. 117:1693-1701, 1996, with the following modifications. Human recombinant A2A receptor was expressed in HEK-293 cells. The ligand used in the assay was 0.05 μM [^3H]CGS-21680. The non-specific ligand was 50 μM NECA. The vehicle control was 1% DMSO. Compound OM69 was tested at 10 μM in incubation buffer (50 mM Tris-HCL, pH 7.4, 10 mM MgCl2, 1 mM EDTA, 2 U/mL Adenosine Deaminase). The reaction was incubated for 90 minutes at 25° C. Radioligand binding was quantitated. […]
# Tyrosine Hydroxylase = Tyrosine Hydroxylase (Rattus norvegicus (Rat), UniProt P04177); experiment: Tyrosine Hydroxylase enzyme assay; assay type: biochemical; conditions: 10.0 μM
# Sequence of Tyrosine Hydroxylase (P04177 whole entry): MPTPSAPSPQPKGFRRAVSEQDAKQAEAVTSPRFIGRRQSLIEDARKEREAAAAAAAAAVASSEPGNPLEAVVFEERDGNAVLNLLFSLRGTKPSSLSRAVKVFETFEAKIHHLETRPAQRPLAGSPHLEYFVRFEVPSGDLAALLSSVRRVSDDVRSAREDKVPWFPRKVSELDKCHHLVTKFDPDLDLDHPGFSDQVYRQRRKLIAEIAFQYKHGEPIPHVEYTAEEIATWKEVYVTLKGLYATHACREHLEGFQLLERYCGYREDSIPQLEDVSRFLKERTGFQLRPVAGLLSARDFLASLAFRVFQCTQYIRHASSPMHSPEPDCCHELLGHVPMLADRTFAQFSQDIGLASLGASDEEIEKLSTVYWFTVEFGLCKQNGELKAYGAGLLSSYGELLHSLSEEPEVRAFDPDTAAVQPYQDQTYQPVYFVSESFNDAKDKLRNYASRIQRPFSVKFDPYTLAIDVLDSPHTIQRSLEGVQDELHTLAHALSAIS
# Protocol: Tyrosine Hydroxylase was assayed as described in Roskoski, R., Jr., et al., J. Biochem 218:363-370 (1993) with the following modifications. Tyrosine Hydroxylase was isolated from Wistar rat brain. The substrate was 100 μM L-[3,5-^3H]Tyrosine+L-Tyrosine. The vehicle control was 1% DMSO. Compound OM69 was tested at 10 μM in incubation buffer (125 mM MES, pH 6.0, 0.5 mg/ml Catalase, 12.5 mM DTT, 0.5 mM (6R)-5,6,7,8-Tetrahydrobiopterin). The reaction was pre-incubated for 15 minutes at 37° C. Tyrosine Hydroxylase enzyme was added, and the reaction was incubated for 20 minutes at 37° C. [^3H]-H20 was quantitated.
# Sequence of Dopamine D2L receptor (P14416 whole entry): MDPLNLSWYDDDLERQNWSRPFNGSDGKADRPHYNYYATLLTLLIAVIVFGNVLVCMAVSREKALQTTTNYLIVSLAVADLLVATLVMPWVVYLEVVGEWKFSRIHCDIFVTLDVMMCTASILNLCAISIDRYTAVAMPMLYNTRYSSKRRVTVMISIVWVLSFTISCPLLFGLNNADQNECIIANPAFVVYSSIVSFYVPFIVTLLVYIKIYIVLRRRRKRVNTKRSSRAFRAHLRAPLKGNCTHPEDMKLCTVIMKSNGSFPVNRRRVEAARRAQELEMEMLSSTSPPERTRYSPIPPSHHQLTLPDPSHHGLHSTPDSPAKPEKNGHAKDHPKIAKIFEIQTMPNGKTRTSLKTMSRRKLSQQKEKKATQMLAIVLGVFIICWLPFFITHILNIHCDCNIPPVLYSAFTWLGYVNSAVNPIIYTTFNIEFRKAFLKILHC
smiles,measurement,setting,value
COc1cc(N)ccc1-c1cc2c(c(=O)[nH]1)C(C1CCCCC1)N=[N+]2C (stereo not drawn) [OM69],percent inhibition of ligand binding to Dopamine D2L,Dopamine D2L receptor,4.0%
same,percent inhibition of ligand binding to Dopamine Transporter (DAT),[1],18.0%
same,IC50,PDE7A,0.0035 µM
same,percent inhibition of ligand binding to Dopamine D5,Dopamine D5 receptor,4.0%
same,IC50,PDE7B,0.0969 µM
same,percent inhibition of COMT enzymatic activity,[2],19.0%
same,percent inhibition of ligand binding to Adenosine A2A Receptor,Adenosine A2A receptor; 10.0 μM,41%
same,percent occupation of A2A receptors,"Adenosine A2A receptor; brain level 8.5 to 17 nM (dose 0.1 mg/kg), using IC50 of 10 μM",about 0.17%
same,percent inhibition of Tyrosine Hydroxylase enzymatic activity,Tyrosine Hydroxylase,4.0%
